Blank lines part the entries; values can stand above or below the compound they belong to.
Tests used:
[1] = biological target: Amyloid-beta precursor protein (Homo sapiens, UniProt P05067); experiment: Displacement of [125I]IMPY from human beta amyloid plaque in brain homogenates; assay type: tissue-based
Lung [2] = experiment: Biodistribution in ICR mouse lung at 5 to 10 uCi, iv after 2 hrs; assay type: ADME, organism-based; details: in vivo
Zone of skin [3] = experiment: Biodistribution in ICR mouse skin at 5 to 10 uCi, iv after 1 hr; assay type: ADME, organism-based; details: in vivo
Liver [4] = experiment: Biodistribution in ICR mouse liver at 5 to 10 uCi, iv after 2 hrs; assay type: ADME, organism-based; details: in vivo
Spleen [5] = experiment: Biodistribution in ICR mouse spleen at 5 to 10 uCi, iv after 1 hr; assay type: ADME, organism-based; details: in vivo
Liver [6] = experiment: Biodistribution in ICR mouse liver at 5 to 10 uCi, iv after 2 mins; assay type: ADME, organism-based; details: in vivo
Liver [7] = experiment: Biodistribution in ICR mouse liver at 5 to 10 uCi, iv after 1 hr; assay type: ADME, organism-based; details: in vivo
Heart [8] = experiment: Biodistribution in ICR mouse heart at 5 to 10 uCi, iv after 30 mins; assay type: ADME, organism-based; details: in vivo, 0.5 h
Blood [9] = experiment: Biodistribution in ICR mouse blood at 5 to 10 uCi, iv after 30 mins; assay type: ADME, organism-based; details: in vivo, 0.5 h
Brain [10] = experiment: Biodistribution in ICR mouse brain at 5 to 10 uCi, iv after 30 mins; assay type: ADME, organism-based; details: in vivo, 0.5 h
Spleen [11] = experiment: Biodistribution in ICR mouse spleen at 5 to 10 uCi, iv after 30 mins; assay type: ADME, organism-based; details: in vivo, 0.5 h
Muscle tissue [12] = experiment: Biodistribution in ICR mouse muscle at 5 to 10 uCi, iv after 2 mins; assay type: ADME, organism-based; details: in vivo
Muscle tissue [13] = experiment: Biodistribution in ICR mouse muscle at 5 to 10 uCi, iv after 30 mins; assay type: ADME, organism-based; details: in vivo, 0.5 h
Bone [14] = experiment: Biodistribution in ICR mouse bone at 5 to 10 uCi, iv after 1 hr; assay type: ADME, organism-based, Bone element; details: in vivo
Kidney [15] = experiment: Biodistribution in ICR mouse kidney at 5 to 10 uCi, iv after 30 mins; assay type: ADME, organism-based; details: in vivo, 0.5 h
Lung [16] = experiment: Biodistribution in ICR mouse lung at 5 to 10 uCi, iv after 1 hr; assay type: ADME, organism-based; details: in vivo
Kidney [17] = experiment: Biodistribution in ICR mouse kidney at 5 to 10 uCi, iv after 2 mins; assay type: ADME, organism-based; details: in vivo
Heart [18] = experiment: Biodistribution in ICR mouse heart at 5 to 10 uCi, iv after 1 hr; assay type: ADME, organism-based; details: in vivo
Liver [19] = experiment: Biodistribution in ICR mouse liver at 5 to 10 uCi, iv after 30 mins; assay type: ADME, organism-based; details: in vivo, 0.5 h
Heart [20] = experiment: Biodistribution in ICR mouse heart at 5 to 10 uCi, iv after 2 mins; assay type: ADME, organism-based; details: in vivo
Zone of skin [21] = experiment: Biodistribution in ICR mouse skin at 5 to 10 uCi, iv after 2 mins; assay type: ADME, organism-based; details: in vivo
Muscle tissue [22] = experiment: Biodistribution in ICR mouse muscle at 5 to 10 uCi, iv after 2 hrs; assay type: ADME, organism-based; details: in vivo
Zone of skin [23] = experiment: Biodistribution in ICR mouse skin at 5 to 10 uCi, iv after 2 hrs; assay type: ADME, organism-based; details: in vivo
Blood [24] = experiment: Biodistribution in ICR mouse blood at 5 to 10 uCi, iv after 2 mins; assay type: ADME, organism-based; details: in vivo
Brain [25] = experiment: Biodistribution in ICR mouse brain at 5 to 10 uCi, iv after 1 hr; assay type: ADME, organism-based; details: in vivo
Bone [26] = experiment: Biodistribution in ICR mouse bone at 5 to 10 uCi, iv after 2 mins; assay type: ADME, organism-based, Bone element; details: in vivo
Blood [27] = experiment: Biodistribution in ICR mouse blood at 5 to 10 uCi, iv after 1 hr; assay type: ADME, organism-based; details: in vivo
Heart [28] = experiment: Biodistribution in ICR mouse heart at 5 to 10 uCi, iv after 2 hrs; assay type: ADME, organism-based; details: in vivo
Spleen [29] = experiment: Biodistribution in ICR mouse spleen at 5 to 10 uCi, iv after 2 hrs; assay type: ADME, organism-based; details: in vivo
Muscle tissue [30] = experiment: Biodistribution in ICR mouse muscle at 5 to 10 uCi, iv after 1 hr; assay type: ADME, organism-based; details: in vivo
[31] = Partition coefficient, log P at pH 7.4; assay type: physicochemical; details: octanol/water
Blood [32] = experiment: Biodistribution in ICR mouse blood at 5 to 10 uCi, iv after 2 hrs; assay type: ADME, organism-based; details: in vivo
Bone [33] = experiment: Biodistribution in ICR mouse bone at 5 to 10 uCi, iv after 2 hrs; assay type: ADME, organism-based, Bone element; details: in vivo
Spleen [34] = experiment: Biodistribution in ICR mouse spleen at 5 to 10 uCi, iv after 2 mins; assay type: ADME, organism-based; details: in vivo
Lung [35] = experiment: Biodistribution in ICR mouse lung at 5 to 10 uCi, iv after 30 mins; assay type: ADME, organism-based; details: in vivo, 0.5 h
Brain [36] = experiment: Biodistribution in ICR mouse brain at 5 to 10 uCi, iv after 2 hrs; assay type: ADME, organism-based; details: in vivo
Kidney [37] = experiment: Biodistribution in ICR mouse kidney at 5 to 10 uCi, iv after 2 hrs; assay type: ADME, organism-based; details: in vivo
Lung [38] = experiment: Biodistribution in ICR mouse lung at 5 to 10 uCi, iv after 2 mins; assay type: ADME, organism-based; details: in vivo
Zone of skin [39] = experiment: Biodistribution in ICR mouse skin at 5 to 10 uCi, iv after 30 mins; assay type: ADME, organism-based; details: in vivo, 0.5 h
Kidney [40] = experiment: Biodistribution in ICR mouse kidney at 5 to 10 uCi, iv after 1 hr; assay type: ADME, organism-based; details: in vivo
Bone [41] = experiment: Biodistribution in ICR mouse bone at 5 to 10 uCi, iv after 30 mins; assay type: ADME, organism-based, Bone element; details: in vivo, 0.5 h
Brain [42] = experiment: Biodistribution in ICR mouse brain at 5 to 10 uCi, iv after 2 mins; assay type: ADME, organism-based; details: in vivo

Amyloid-beta precursor protein, sequence (P05067 whole entry): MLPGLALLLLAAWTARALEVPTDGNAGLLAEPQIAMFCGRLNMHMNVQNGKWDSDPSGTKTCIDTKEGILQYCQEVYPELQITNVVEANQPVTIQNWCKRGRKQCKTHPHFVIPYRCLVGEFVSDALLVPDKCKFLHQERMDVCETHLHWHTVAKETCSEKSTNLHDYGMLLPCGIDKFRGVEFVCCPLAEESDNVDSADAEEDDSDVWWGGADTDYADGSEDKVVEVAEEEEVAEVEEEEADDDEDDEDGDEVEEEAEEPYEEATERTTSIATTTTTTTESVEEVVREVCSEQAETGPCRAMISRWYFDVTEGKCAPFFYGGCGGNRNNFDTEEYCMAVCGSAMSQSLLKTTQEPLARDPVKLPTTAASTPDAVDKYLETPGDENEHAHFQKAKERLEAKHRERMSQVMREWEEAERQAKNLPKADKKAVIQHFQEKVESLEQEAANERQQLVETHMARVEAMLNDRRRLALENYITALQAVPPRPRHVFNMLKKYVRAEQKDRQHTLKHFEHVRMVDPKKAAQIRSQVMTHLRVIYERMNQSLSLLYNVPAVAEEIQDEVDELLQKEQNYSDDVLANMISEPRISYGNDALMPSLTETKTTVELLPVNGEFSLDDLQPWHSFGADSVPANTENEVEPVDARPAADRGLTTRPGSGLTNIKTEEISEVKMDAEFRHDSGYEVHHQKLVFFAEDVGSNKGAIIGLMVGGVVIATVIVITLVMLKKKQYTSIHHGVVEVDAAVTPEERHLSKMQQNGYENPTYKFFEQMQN

SMILES: Nc1ccc(C#Cc2ccc(OCCOCCOCCO)cc2)cc1
Ki [1]: 67.6 nM

SMILES: CNc1ccc(C#Cc2ccc(O)cc2)cc1
Ki [1]: 1.5 nM

SMILES: COc1ccc(C#Cc2ccc(O)cc2)cc1
Ki [1]: 2.9 nM

SMILES: CN(C)c1ccc(C#Cc2ccc(OCCOCC[18F])cc2)cc1
Drug uptake (Lung [2]): 3.38 % ID/g
Drug uptake (Zone of skin [3]): 1.71 % ID/g
Drug uptake (Liver [4]): 8.85 % ID/g
Drug uptake (Spleen [5]): 2.38 % ID/g
Drug uptake (Liver [6]): 19.3 % ID/g
Drug uptake (Liver [7]): 9.99 % ID/g
Drug uptake (Heart [8]): 2.82 % ID/g
Drug uptake (Blood [9]): 6.13 % ID/g
Drug uptake (Brain [10]): 3.69 % ID/g
Drug uptake (Spleen [11]): 2.94 % ID/g
Drug uptake (Muscle tissue [12]): 0.91 % ID/g
Drug uptake (Muscle tissue [13]): 1.38 % ID/g
Drug uptake (Bone [14]): 1.36 % ID/g
Drug uptake (Kidney [15]): 4.75 % ID/g
Drug uptake (Lung [16]): 3.82 % ID/g
Drug uptake (Kidney [17]): 12.9 % ID/g
Drug uptake (Heart [18]): 2.48 % ID/g
Drug uptake (Liver [19]): 11.2 % ID/g
Drug uptake (Heart [20]): 10.5 % ID/g
Drug uptake (Zone of skin [21]): 0.85 % ID/g
Drug uptake (Muscle tissue [22]): 1.03 % ID/g
Drug uptake (Zone of skin [23]): 1.67 % ID/g
Drug uptake (Blood [24]): 7.33 % ID/g
Drug uptake (Brain [25]): 2.06 % ID/g
Drug uptake (Bone [26]): 1.78 % ID/g
Drug uptake (Blood [27]): 5.68 % ID/g
Drug uptake (Heart [28]): 2.11 % ID/g
Drug uptake (Spleen [29]): 2.31 % ID/g
Drug uptake (Muscle tissue [30]): 1.21 % ID/g
logD [31]: 3.12
Drug uptake (Blood [32]): 5.17 % ID/g
Drug uptake (Bone [33]): 1.65 % ID/g
Drug uptake (Spleen [34]): 5.12 % ID/g
Drug uptake (Lung [35]): 4.66 % ID/g
Drug uptake (Brain [36]): 1.34 % ID/g
Drug uptake (Kidney [37]): 4.16 % ID/g
Drug uptake (Lung [38]): 11.1 % ID/g
Drug uptake (Zone of skin [39]): 2.23 % ID/g
Drug uptake (Kidney [40]): 4.79 % ID/g
Drug uptake (Bone [41]): 1.41 % ID/g
Drug uptake (Brain [42]): 5.41 % ID/g

SMILES: CN(C)c1ccc(C#Cc2ccc(OCCOCCO)cc2)cc1
Ki [1]: 3.8 nM

SMILES: CN(C)c1ccc(C#Cc2ccc(OCCOCCOCCO)cc2)cc1
Ki [1]: 3.4 nM

Next, values leading:

Drug uptake (Lung [2]): 4.67 % ID/g
Drug uptake (Zone of skin [3]): 2.55 % ID/g
Drug uptake (Liver [4]): 11.7 % ID/g
Drug uptake (Spleen [5]): 3.78 % ID/g
Drug uptake (Liver [6]): 29.6 % ID/g
Drug uptake (Liver [7]): 15.6 % ID/g
Drug uptake (Heart [8]): 2.84 % ID/g
Drug uptake (Blood [9]): 7.9 % ID/g
Drug uptake (Brain [10]): 1.03 % ID/g
Drug uptake (Spleen [11]): 3.6 % ID/g
Drug uptake (Muscle tissue [12]): 0.79 % ID/g
Drug uptake (Muscle tissue [13]): 1.26 % ID/g
Drug uptake (Bone [14]): 1.92 % ID/g
Drug uptake (Kidney [15]): 4.78 % ID/g
Drug uptake (Lung [16]): 6.01 % ID/g
Drug uptake (Kidney [17]): 5.55 % ID/g
Drug uptake (Heart [18]): 3.54 % ID/g
Drug uptake (Liver [19]): 18.3 % ID/g
Drug uptake (Heart [20]): 4.73 % ID/g
Drug uptake (Zone of skin [21]): 0.94 % ID/g
Drug uptake (Muscle tissue [22]): 1.26 % ID/g
Drug uptake (Zone of skin [23]): 2.04 % ID/g
Drug uptake (Blood [24]): 7.89 % ID/g
Drug uptake (Brain [25]): 0.99 % ID/g
Drug uptake (Bone [26]): 1.54 % ID/g
Drug uptake (Blood [27]): 10.3 % ID/g
Drug uptake (Heart [28]): 2.6 % ID/g
Drug uptake (Spleen [29]): 3.3 % ID/g
Drug uptake (Muscle tissue [30]): 1.38 % ID/g
logD [31]: 3.48
Drug uptake (Blood [32]): 7.84 % ID/g
Drug uptake (Bone [33]): 2.07 % ID/g
Drug uptake (Spleen [34]): 3.74 % ID/g
Drug uptake (Lung [35]): 4.77 % ID/g
Drug uptake (Brain [36]): 0.82 % ID/g
Drug uptake (Kidney [37]): 5.55 % ID/g
Drug uptake (Lung [38]): 6.57 % ID/g
Drug uptake (Zone of skin [39]): 2.11 % ID/g
Drug uptake (Kidney [40]): 6.17 % ID/g
Drug uptake (Bone [41]): 1.46 % ID/g
Drug uptake (Brain [42]): 4.42 % ID/g
SMILES: CNc1ccc(C#Cc2ccc(OCCOCC[18F])cc2)cc1

Ki [1]: 106 nM
SMILES: Nc1ccc(C#Cc2ccc(O)cc2)cc1

Ki [1]: 12 nM
SMILES: Nc1ccc(C#Cc2ccc(OCCOCCF)cc2)cc1

Drug uptake (Lung [2]): 1.72 % ID/g
Drug uptake (Zone of skin [3]): 0.95 % ID/g
Drug uptake (Liver [4]): 9.14 % ID/g
Drug uptake (Spleen [5]): 0.95 % ID/g
Drug uptake (Liver [6]): 25.8 % ID/g
Drug uptake (Liver [7]): 10.2 % ID/g
Drug uptake (Heart [8]): 1.4 % ID/g
Drug uptake (Blood [9]): 3.28 % ID/g
Drug uptake (Brain [10]): 0.42 % ID/g
Drug uptake (Spleen [11]): 1.22 % ID/g
Drug uptake (Muscle tissue [12]): 1.97 % ID/g
Drug uptake (Muscle tissue [13]): 0.61 % ID/g
Drug uptake (Bone [14]): 0.65 % ID/g
Drug uptake (Kidney [15]): 2.9 % ID/g
Drug uptake (Lung [16]): 2.04 % ID/g
Drug uptake (Kidney [17]): 4.74 % ID/g
Drug uptake (Heart [18]): 1.24 % ID/g
Drug uptake (Liver [19]): 14.8 % ID/g
Drug uptake (Heart [20]): 4.21 % ID/g
Drug uptake (Zone of skin [21]): 1.24 % ID/g
Drug uptake (Muscle tissue [22]): 0.39 % ID/g
Drug uptake (Zone of skin [23]): 0.6 % ID/g
Drug uptake (Blood [24]): 3.28 % ID/g
Drug uptake (Brain [25]): 0.37 % ID/g
Drug uptake (Bone [26]): 1.5 % ID/g
Drug uptake (Blood [27]): 3.22 % ID/g
Drug uptake (Heart [28]): 0.96 % ID/g
Drug uptake (Spleen [29]): 1.02 % ID/g
Drug uptake (Muscle tissue [30]): 0.62 % ID/g
logD [31]: 3.07
Drug uptake (Blood [32]): 3.17 % ID/g
Drug uptake (Bone [33]): 0.82 % ID/g
Drug uptake (Spleen [34]): 2.69 % ID/g
Drug uptake (Lung [35]): 2.1 % ID/g
Drug uptake (Brain [36]): 0.38 % ID/g
Drug uptake (Kidney [37]): 1.8 % ID/g
Drug uptake (Lung [38]): 4.64 % ID/g
Drug uptake (Zone of skin [39]): 1.4 % ID/g
Drug uptake (Kidney [40]): 2.4 % ID/g
Drug uptake (Bone [41]): 0.66 % ID/g
Drug uptake (Brain [42]): 4.55 % ID/g
SMILES: CNc1ccc(C#Cc2ccc(OCCOCCOCC[18F])cc2)cc1

Ki [1]: 175 nM
SMILES: C(#Cc1ccccc1)c1ccccc1 [DIPHENYLACETYLENE]
